The subject of data set [1] is reference strains of bacteria. As to the kind of experiment: Positive control antibiotics, broth microdilution MIC. As to conditions: range over the bacteria. It is filed as cell-based. The protocol: The reference antibiotics used during our studies for the selected species of reference bacteria were ciprofloxacin and cefuroxime (Merck KGaA, Darmstadt, Germany). Nystatin (Merck KGaA, Darmstadt, Germany), a known antifungal antibiotic, was used as a positive control for Candida spp.
All reference antimicrobials against bacteria or fungi were tested in a final concentration range from 0.0049 to 10 µg/mL. The tested Schiff bases were two-fold diluted in the concentration range from 0.49 to 1000 μg/mL in culture broth medium for bacteria or fungi. The medium with DMSO at the final concentrations and without the tested Schiff bases served as a control—no microbial growth inhibition was observed. […]
The minimal inhibitory concentration (MIC) was determined with the microdilution technique using 96-well polystyrene microplates (Medlab, Poland), as indicated by the European Committee on Antimicrobial Susceptibility Testing (EUCAST) guidelines. […] After the incubation, the results were spectrophotometrically determined in Biotek ELx800 (Biokom, Janki, Poland) at 600 nm (OD600). The lowest concentration of the tested compounds with the absence of bacterial growth was determined as an MIC. […]

For the next data set, the system named is MDA-MB-231. As to the kind of experiment: MTT cell viability assay. It is filed as cell-based, human. As to conditions: Homo sapiens, MDA-MB-231, MTT, read-out: Cytotoxic activity IC50. The protocol:
(§1) All the cell lines were purchased from the American Type Culture Collection (ATCC, Rockville, MD, USA) and cultured in strictly defined conditions according to the recommended ATCC protocol. The PC3 cells were cultured in RPMI 1640 (Roswell Park Memorial Institute, Biowest SAS, Nuaillé, France), while the MDA-MB-231 and HaCaT cells were maintained in DMEM (Dulbecco’s Modified Eagle’s Medium, Biowest SAS, Nuaillé, France) supplemented with 1% streptomycin and penicillin and in 10% heat-inactivated fetal bovine serum (FBS, Gibco BRL San Francisco, CA, USA) with 1% streptomycin and penicillin. The cells were incubated in a 37 °C/5% CO2 humidified incubator. They were cultured until 80–90% confluence was achieved. Then, they were harvested by treatment with 0.25% trypsin-0.02% EDTA (Gibco BRL, San Francisco, CA, USA) and used in the experiments. Untreated cells were used as a control. […] After 24 h of incubation, the culture medium was replaced with a fresh medium. […] Then, the medium was aspirated and formed formazan crystals were solubilized by adding isopropanol-DMSO mixture (1:1 vol). The intensity of the dissolved crystals was measured using a UVM 340 reader (ASYS Hitech GmbH, Eugendorf, Austria) at a wavelength of 570 nm. Cell viability was estimated by the percentage of MTT reduction in cells to which the tested compounds were added, compared to the control sample, where only the medium was added. The experiments were repeated three times. The IC50 was calculated using GraphPad Prism 9.0.0 (GraphPad Software).
(Formazan colour is commonly taken as a measure of viable cells.)

A further data set concerns PC3. Nature of the data set: MTT cell viability assay. It counts as cell-based, human. As to conditions: Homo sapiens, PC-3, PC3, MTT, read-out: Cytotoxic activity IC50. As for the experimental part: as §1
Data set [2] deals with Staphylococcus epidermidis ATCC 12228. As to the kind of experiment: Broth microdilution MIC/MBC, antibacterial. It is filed as cell-based. The following applies: ATCC12228. As for the experimental part: (§2) The minimal inhibitory concentration (MIC) was determined with the microdilution technique using 96-well polystyrene microplates (Medlab, Poland), as indicated by the European Committee on Antimicrobial Susceptibility Testing (EUCAST) guidelines. In this process, stock solutions of each tested Schiff base dissolved in dimethylsulphoxide (DMSO, Stanlab, Poland) were used at a concentration of 50 mg/mL. Before in vitro antibacterial activity detection, the basic concentration of 1000 µg/mL of each compound was prepared with Mueller–Hinton broth medium (MHB, BioMaxima, Lublin, Poland). The experiment was prepared using Mueller–Hinton broth medium in 96-well microplates. A series of two-fold dilutions of the tested compounds in the concentration range from 0.49 to 1000 μg/mL was made in culture broth medium. Then, 2 μL of bacterial inoculum with a density of 0.5 McFarland standard was added to each well. Each well was filled with a total volume of 100 μL. Then, the microtiter plates were incubated for 18 ± 2 h at 35 °C. After the incubation, the results were spectrophotometrically determined in Biotek ELx800 (Biokom, Janki, Poland) at 600 nm (OD600). The lowest concentration of the tested compounds with the absence of bacterial growth was determined as an MIC. Three replicates for each strain and compound were performed.
(§3) After incubation, 5 μL of the broth media cultured with bacteria or fungi were removed from each well of the plates used in the MIC experiments. Next, they were culturd onto the surface of the MHA medium (BioMaxima, Lublin, Poland) plate for bacteria or MHA +2% glucose plate for yeasts. The inoculated plates were incubated in the conditions mentioned above. After incubation, a visual reading of MBC or MFC values was made. […] Three replicates for each strain and compound were performed.
(Broth dilution looks for growth in wells or tubes with falling amounts of substance.)

The subject of data set [3] is Pseudomonas aeruginosa ATCC 27853. As to the kind of experiment: Broth microdilution MIC/MBC, antibacterial. It is filed as cell-based. The following applies: ATCC27853. The protocol:
as §2, §3

Data set [4] has as its system Staphylococcus aureus ATCC 6538. Nature of the data set: Broth microdilution MIC/MBC, antibacterial. It is filed as cell-based. The following applies: ATCC6538. The protocol:
as §2, §3

In data set [5] the test system is Escherichia coli ATCC 25922. Nature of the data set: Broth microdilution MIC/MBC, antibacterial. It counts as cell-based. The following applies: ATCC25922, Escherichia coli ATCC 25922. As for the experimental part:
as §2, §3

Data set [6] deals with Bacillus subtilis ATCC 6633. Nature of the data set: Broth microdilution MIC/MBC, antibacterial. It is filed as cell-based. As to conditions: ATCC6633. The protocol: as §2, §3
The subject of data set [7] is Micrococcus luteus ATCC 10240. As to the kind of experiment: Broth microdilution MIC/MBC, antibacterial. It is filed as cell-based. As to conditions: ATCC10240. As for the experimental part:
as §2, §3

The test system of data set [8] is Klebsiella pneumoniae ATCC 13883. As to the kind of experiment: Broth microdilution MIC/MBC, antibacterial. It counts as cell-based. The following applies: ATCC13883, Klebsiella pneumoniae ATCC 13883. As for the experimental part: as §2, §3
The nature of the next data set: MTT cell viability assay. It counts as cell-based. As to conditions: human, HaCaT cells (immortal keratinocytes), HaCaT normal cell line, read-out: Cytotoxic activity IC50 (converted). The protocol: as §1
In data set [9] the test system is Candida glabrata ATCC 15126. Nature of the data set: Broth microdilution MIC/MFC, antifungal. It is filed as cell-based. As to conditions: Nakaseomyces glabratus, ATCC15126. As for the experimental part:
(§4) To determine the antifungal activity of the newly synthesized Schiff bases against the reference strains of Candida spp., the broth microdilution method was used according to the EUCAST [52] and Clinical and Laboratory Standards Institute (CLSI) guidelines with some modifications to the medium. Before in vitro antifungal activity detection, the basic concentration of 1000 µg/mL of each compound was prepared with Mueller–Hinton broth (BioMaxima, Lublin, Poland) supplemented with 2% glucose (MHB+2% glucose). […] The final concentrations of the Schiff bases ranged from […] to 1000 µg/mL. All the reference strains of Candida spp. used were first subcultured to the Mueller–Hinton agar medium (BioMaxima, Lublin, Poland) with 2% glucose (MHA +2% glucose) at 37 °C for 24 h. Next, 2 µL of appropriate fungal suspensions was added to each well containing 100 µL of MHB + 2% glucose and the various concentrations of the tested Schiff bases.
as §3

For data set [10], the system named is Candida krusei ATCC 14243. As to the kind of experiment: Broth microdilution MIC/MFC, antifungal. It counts as cell-based. As to conditions: Pichia kudriavzevii, ATCC14243. The protocol: as §4, §3
The subject of data set [11] is Candida lusitaniae ATCC 3449. As to the kind of experiment: Broth microdilution MIC/MFC, antifungal. It counts as cell-based. The following applies: Clavispora lusitaniae, ATCC3449. The protocol:
as §4, §3

For data set [12], the system named is Candida glabrata ATCC 90030. As to the kind of experiment: Broth microdilution MIC/MFC, antifungal. It is filed as cell-based. As to conditions: Nakaseomyces glabratus, ATCC90030. As for the experimental part:
as §4, §3

Data set [13] deals with Candida tropicalis ATCC 1369. As to the kind of experiment: Broth microdilution MIC/MFC, antifungal. It is filed as cell-based. As to conditions: ATCC1369. As for the experimental part:
as §4, §3

The subject of data set [14] is Candida albicans ATCC 10231. As to the kind of experiment: Broth microdilution MIC/MFC, antifungal. It is filed as cell-based. As for the experimental part:
as §4, §3

The subject of another data set is Candida auris CDC B11903. As to the kind of experiment: Broth microdilution MIC/MFC, antifungal. It is filed as cell-based. As to conditions: Candidozyma auris, CDCB11903. The protocol:
as §4, §3

This is an account of results in PMC10057893, “Synthesis and Biological Evaluation of New Schiff Bases Derived from 4-Amino-5-(3-fluorophenyl)-1,2,4-triazole-3-thione” (Molecules, 2023).

Structures are written as SMILES. Converted amounts (≈) assume the structure as drawn. Like-named read-outs stand apart in the source and are kept apart here.

The MIC is the smallest concentration in the dilution series that meets the test's criterion for growth inhibition. Read a high MIC as weaker potency. One may read the IC50 as the concentration that gives 50% inhibition. As usually defined, the melting point is the temperature of the solid-liquid transition. For orientation: MFC means the smallest concentration meeting the test's criterion for killing the fungus.

`CO/N=C(\C(=O)N[C@@H]1C(=O)N2C(C(=O)O)=C(COC(N)=O)CS[C@H]12)c1ccco1` [cefuroxime]: the minimum inhibitory concentration (MIC) in data set [1] is 0.24 to 62.5 µg/mL (≈ 0.000566 to 0.147 mM).

As for `O=C(O)c1cn(C2CC2)c2cc(N3CCNCC3)c(F)cc2c1=O` [ciprofloxacin], the MIC in [1] fell in the range of 0.24 to 0.98 µg/mL (≈ 0.000724 to 0.00296 mM).

Consider `COc1ccccc1C=Nn1c(-c2cccc(F)c2)n[nH]c1=S` [RO12, 5-(3-fluorophenyl)-4-[(2-methoxybenzylidene)amino]-2,4-dihydro-3H-1,2,4-triazole-3-thione], for which the melting point was in the range of 140 to 143 °C. In addition, the IC50 in the data set on MDA-MB-231 (72 h (table footnote)) is greater than 100 µM. Besides, the IC50 with MDA-MB-231 (same value in µg/mL) was greater than 38.8 µg/mL. Moreover, the half-maximal inhibitory concentration (IC50) in the data set with PC3 (72 h (table footnote)) is greater than 100 µM. Besides, the IC50 in the data set on PC3 (same value in µg/mL) was greater than 38.8 µg/mL. This compound also had a minimum inhibitory concentration (MIC) in data set [2] greater than 1000 µg/mL. Further, in data set [3], the MIC is greater than 1000 µg/mL. Besides, the MIC in data set [4] is greater than 1000 µg/mL. This compound also yielded a minimal inhibitory concentration (MIC) in data set [5] greater than 1000 µg/mL. In data set [6], the MIC is greater than 1000 µg/mL. Also, in data set [7], the minimum inhibitory concentration (MIC) was greater than 1000 µg/mL. Further, in [8], the MIC is greater than 1000 µg/mL. The IC50 at 72 h in “MTT cell viability assay” (72 h (table footnote)) was 98.1 µM. Besides, the IC50 at 72 h in the data set “MTT cell viability assay” (same value in µg/mL) is 38.1 µg/mL. In addition, in data set [9], the minimum inhibitory concentration (MIC) is greater than 1000 µg/mL. Further, the MIC in data set [10] stood at 1000 µg/mL (≈ 3.05 mM). Further, in data set [11], the minimum fungicidal concentration (MFC) is greater than 1000 µg/mL and the minimal inhibitory concentration (MIC) is 500 µg/mL (≈ 1.52 mM). In data set [12], the minimum fungicidal concentration (MFC) is greater than 1000 µg/mL and inhibition of growth (MIC) required 500 µg/mL (≈ 1.52 mM). Besides, in [13], the minimum fungicidal concentration (MFC) is greater than 1000 µg/mL and the MIC stood at 500 µg/mL (≈ 1.52 mM). In [14] (ATCC10231), this compound came in with a minimal inhibitory concentration (MIC) of 125 µg/mL (≈ 0.381 mM). Also, the MFC in data set [14] (ATCC10231, read-out: MFC) is greater than 1000 µg/mL. For the same compound, in the data set with Candida auris CDC B11903, the minimal fungicidal concentration (MFC) is greater than 1000 µg/mL and it took 500 µg/mL (≈ 1.52 mM) to inhibit growth (MIC).
